From patent publication US20240269170A1, “Treatment of Inflammatory Conditions or Diseases” (Queen Mary University of London, priority 2021, published 2024)

System: K/B×N serum induced arthritis in C57BL/6 mice
Test: Sustained K/B×N serum induced arthritis, transfer of monocytes from arthritic mice incubated with MCTR3
Format: in vivo, mouse
Method: (C-D) K/B×N serum (100 μL, i.p.) was administered to C57BL/6 mice on day 0, 2 and 9 to induce and prolong inflammatory arthritis and, on day 12, mice were treated i.v. with 2×10^6 monocytes isolated from arthritic mice and incubated with either vehicle (PBS+0.1% EtOH) or 1 nM MCTR3 for 90 min at 37° C. Disease course was monitored daily by assessing C) clinical scores and D) oedema. Results are mean±SEM. and expressed as percent change from day of treatment. n=9 per group from two distinct experiments. (E) On day 22 hind paws were harvested joints were fixed, sectioned, stained using H&E stain and leukocyte infiltration evaluated. Top and centre panels present representative images from each experimental group; bottom panel Quantitation of the scores in each of the group. Results are mean±SEM. n=8 mice per group. Statistical differences were evaluated using Mann-Whitney U test. IFP=intrapatellar fat, M=meniscus, TB=Tibia, PF=Pannus formation, arrows denote leukocyte infiltration. (F-G) Paws were harvested 10 days after treatment and lipid mediator profiles were determined using LC-MS/MS-based lipid mediator profiling and evaluated using PLS-DA. (F) scores plot with highlighted regions denoting the clusters representing cells from each group (G) VIP scores for top 15 mediators. Each dot in the score plot represents a separate mouse.
FIG. 4: Regulation of joint reparative pathways in mice receiving MCTR3-trained monocytes. K/B×N serum (100 μL, i.p.) was administered to C57BL/6 mice on day 0, 2 and 9 to induce and prolong inflammatory arthritis and, on day 12, mice were treated i.v. with 2×10^6 monocytes isolated from arthritic mice and incubated with either vehicle (PBS+0.1% EtOH) or 1 nM MCTR3 for 90 min. (A-C) On day 22 hind paws were harvested, fixed, and stained to evaluate A) proteoglycan content using Safranin-O staining; B) Col 2 and C) Col X expression was evaluated using immunofluorescence. Left panels present representative images from each experimental group, right panels provide a quantitative evaluation of the staining. Results are expressed as percent change vs Monocyte group. n=7-8 mice per group. Statistical differences were evaluated using Wilcoxon signed rank test. (D-I) Hind paws were also collected on day 22 to evaluate the expression of the indicated genes was evaluated using quantitative realtime PCR. Results are from n=5 mice per group. Statistical differences were evaluated using Mann Whitney-U test.
FIG. 5: MCTR3 reprograms the arthritic monocyte-derive macrophage transcriptome. A-B) Arthritis was induced and prolonged in C57BL/6 mice by administering 100 μL K/B×N serum i.p. on day 0, 2 and 9. Mice were treated on day 12 i.v. with 2×10^6 monocytes isolated from arthritic mice and incubated either with vehicle (PBS+0.1% DMSO) or 10 μM RG108, a DNMT inhibitor, for 15 min and then with a vehicle (PBS+0.1% EtOH) or 1 nM MCTR3 for 90 min (37° C.). Disease course was monitored daily by assessing A) clinical scores and B) oedema. Results are mean±SEM and expressed as percent change from day of treatment. n=10 mice per group. Statistical differences were evaluated using Two-way ANOVA. (C-E) K/B×N serum (100 μL, i.p.) was administered to mice on days 0, 2 and 9 to induce and prolong inflammatory arthritis. On day 12, mice were treated i.v. with 2×10^6 monocytes isolated from arthritic mice that were previously incubated with either vehicle (PBS+0.1% EtOH) or 1 nM MCTR3 for 90 min. Cells were isolated from paw joints on day 22, sorted for CD45^+ cells and single cell RNA sequencing was performed. […] Results are from n=4 mice per group. (F-G) Monocytes were isolated from human healthy volunteers, these cells were then incubated with GM-CSF (7 days, 37° C.) then with either Vehicle or MCTR3 (1 nM, 37° C.). Cells were lysed and the phosphoproteome determined using mass spectrometry. […]

[1] = 200 μg nor-NOHA i.p. daily for 10 days from day 12
[2] = 200 μg nor-NOHA i.p. daily, mice given MCTR3-reprogrammed monocytes

In the case of `N=C(NO)NCC[C@H](N)C(=O)O` [nor-NOHA, N^ω-hydroxy-nor-L-arginine], the “clinical scores in mice given MCTR3-reprogrammed monocytes” value [1] is reported as “increase”, the “oedema in mice given MCTR3-reprogrammed monocytes” value [1] is reported as “increase” and the “upregulation of Dbl in PKH67+ CD64+ cells” value [2] is reported as “reversed”. The “upregulation of TGF-β1 in PKH67+ CD64+ cells” value [2] was “reversed”.
